Values quoted from earlier work in paper PMC4284021 (The Journal of Pharmacy and Pharmacology, 2014).

Columns and labels:
patients [1] = conditions: cited from earlier work
CETP = conditions: cited from earlier work
patients [2] = conditions: cited from earlier work; remark: listed apart in the source
patients [3] = conditions: cited from earlier work; remark: listed apart in the source
[4] = system: CYP11B1 (steroid 11 β-hydroxylase) and CYP11B2 (aldosterone synthase); conditions: branched DNA analysis; cited from earlier work

Structure (SMILES): COc1cc(F)c(C(C)C)cc1-c1ccc(C(F)(F)F)cc1CN1C(=O)O[C@H](c2cc(C(F)(F)F)cc(C(F)(F)F)c2)[C@@H]1C [anacetrapib]
- plasma concentrations after cessation of treatment (patients [1]; 12 weeks after cessation): significant plasma concentrations
- changes in blood pressure or electrolyte or aldosterone levels (patients [1]; through 76 weeks): no changes were noted
- time of peak CETP inhibition after dosing (CETP): 4 h

Structure (SMILES): CCC(CC)CC1(C(=O)Nc2ccccc2SC(=O)C(C)C)CCCCC1 [dalcetrapib]
- mean systolic blood pressure higher than in the placebo group (patients [2]): approximately 0.6 mmHg

Structure (SMILES): CCOC(=O)N1c2ccc(C(F)(F)F)cc2[C@@H](N(Cc2cc(C(F)(F)F)cc(C(F)(F)F)c2)C(=O)OC)C[C@H]1CC [torcetrapib]
- blood pressure and aldosterone levels (patients [3]): increases in blood pressure and aldosterone levels
- mortality and CV events (patients [3]): excess risk
- expression of genes regulating CYP11B1 and CYP11B2 [4]: induced expression
